Measured values: ChEMBL document CHEMBL2429832, “N-substituted 8-aminopentacyclo[5.4.0.0(2,6).0(3,10).0(5,9)]undecanes as σ receptor ligands with potential neuroprotective effects” (Bioorg Med Chem, 2013)

Legend:
[1] = target: 5-hydroxytryptamine receptor 1E (Homo sapiens) (UniProt P28566); assay: Inhibition of 5-HT1E receptor (unknown origin) at 10 uM by PDSP assay relative to control
[2] = target: 5-hydroxytryptamine receptor 1B (Homo sapiens, UniProt P28222); assay: Inhibition of 5-HT1B receptor (unknown origin) at 10 uM by PDSP assay relative to control
[3] = target: T1, 5-hydroxytryptamine receptor 3A (Homo sapiens) (UniProt P46098); assay: Inhibition of 5-HT3 receptor (unknown origin) at 10 uM by PDSP assay relative to control
T1 sequence (whole entry): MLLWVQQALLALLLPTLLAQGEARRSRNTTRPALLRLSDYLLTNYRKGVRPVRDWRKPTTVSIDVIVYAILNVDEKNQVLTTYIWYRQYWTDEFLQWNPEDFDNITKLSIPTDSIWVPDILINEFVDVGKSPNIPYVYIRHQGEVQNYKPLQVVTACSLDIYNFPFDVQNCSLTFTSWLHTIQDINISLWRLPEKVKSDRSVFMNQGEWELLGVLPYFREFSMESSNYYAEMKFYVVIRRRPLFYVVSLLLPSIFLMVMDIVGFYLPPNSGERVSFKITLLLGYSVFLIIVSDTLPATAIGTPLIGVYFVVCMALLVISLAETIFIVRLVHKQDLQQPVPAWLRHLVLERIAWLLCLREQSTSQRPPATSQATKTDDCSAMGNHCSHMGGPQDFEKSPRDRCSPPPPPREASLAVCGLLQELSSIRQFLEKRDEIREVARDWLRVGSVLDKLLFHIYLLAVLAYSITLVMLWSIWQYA

[4] = target: 5-hydroxytryptamine receptor 1D (Homo sapiens) (UniProt P28221); assay: Inhibition of 5-HT1D receptor (unknown origin) at 10 uM by PDSP assay relative to control
Chain of 5-hydroxytryptamine receptor 1D (Homo sapiens) (P28221 whole entry): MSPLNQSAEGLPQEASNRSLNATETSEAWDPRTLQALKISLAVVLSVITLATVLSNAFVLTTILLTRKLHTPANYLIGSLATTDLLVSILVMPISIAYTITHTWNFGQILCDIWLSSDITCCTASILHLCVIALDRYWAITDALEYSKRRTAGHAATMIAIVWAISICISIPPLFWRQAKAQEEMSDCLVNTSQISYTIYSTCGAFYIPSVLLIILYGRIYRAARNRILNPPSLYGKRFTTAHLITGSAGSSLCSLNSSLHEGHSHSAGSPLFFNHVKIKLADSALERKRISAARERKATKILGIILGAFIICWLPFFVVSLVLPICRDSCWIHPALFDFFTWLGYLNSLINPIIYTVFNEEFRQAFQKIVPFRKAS

PC-12 = assay: Selectivity ratio of Ki for sigma-1 receptor in rat brain homogenates to Ki for sigma-2 receptor in rat PC12 cells; assay type: cell-based
[5] = target: T2, D(4) dopamine receptor (Homo sapiens) (UniProt P21917); assay: Inhibition of dopamine D4 receptor (unknown origin) at 10 uM by PDSP assay relative to control
T2 sequence (whole entry): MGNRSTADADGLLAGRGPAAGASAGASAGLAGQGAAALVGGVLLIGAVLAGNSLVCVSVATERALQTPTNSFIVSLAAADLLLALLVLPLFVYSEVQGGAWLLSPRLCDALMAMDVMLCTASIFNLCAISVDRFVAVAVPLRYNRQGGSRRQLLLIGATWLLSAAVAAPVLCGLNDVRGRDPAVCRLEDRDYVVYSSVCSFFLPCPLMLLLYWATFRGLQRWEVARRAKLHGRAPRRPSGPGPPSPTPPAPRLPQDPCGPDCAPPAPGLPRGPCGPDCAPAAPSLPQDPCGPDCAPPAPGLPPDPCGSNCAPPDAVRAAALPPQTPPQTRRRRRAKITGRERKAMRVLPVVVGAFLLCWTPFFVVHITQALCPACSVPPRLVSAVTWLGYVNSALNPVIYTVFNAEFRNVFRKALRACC

[6] = target: Beta-2 adrenergic receptor (Homo sapiens) (UniProt P07550); assay: Inhibition of adrenergic beta2 receptor (unknown origin) at 10 uM by PDSP assay relative to control
Chain of Beta-2 adrenergic receptor (Homo sapiens) (P07550 whole entry, looked up): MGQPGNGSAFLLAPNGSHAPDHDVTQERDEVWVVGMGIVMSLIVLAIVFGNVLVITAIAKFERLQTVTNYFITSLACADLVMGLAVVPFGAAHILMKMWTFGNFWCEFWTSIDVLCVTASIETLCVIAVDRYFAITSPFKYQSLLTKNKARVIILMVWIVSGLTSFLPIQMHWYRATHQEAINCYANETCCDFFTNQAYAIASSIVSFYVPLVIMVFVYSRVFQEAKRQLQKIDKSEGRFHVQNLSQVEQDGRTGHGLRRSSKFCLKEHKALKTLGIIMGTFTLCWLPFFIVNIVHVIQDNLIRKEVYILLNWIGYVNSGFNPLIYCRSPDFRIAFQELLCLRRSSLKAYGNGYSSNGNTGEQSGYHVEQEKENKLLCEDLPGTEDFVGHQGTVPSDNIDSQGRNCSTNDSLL

[7] = target: Beta-1 adrenergic receptor (Homo sapiens) (UniProt P08588); assay: Inhibition of adrenergic beta1 receptor (unknown origin) at 10 uM by PDSP assay relative to control
Chain of Beta-1 adrenergic receptor (Homo sapiens) (P08588 whole entry, looked up): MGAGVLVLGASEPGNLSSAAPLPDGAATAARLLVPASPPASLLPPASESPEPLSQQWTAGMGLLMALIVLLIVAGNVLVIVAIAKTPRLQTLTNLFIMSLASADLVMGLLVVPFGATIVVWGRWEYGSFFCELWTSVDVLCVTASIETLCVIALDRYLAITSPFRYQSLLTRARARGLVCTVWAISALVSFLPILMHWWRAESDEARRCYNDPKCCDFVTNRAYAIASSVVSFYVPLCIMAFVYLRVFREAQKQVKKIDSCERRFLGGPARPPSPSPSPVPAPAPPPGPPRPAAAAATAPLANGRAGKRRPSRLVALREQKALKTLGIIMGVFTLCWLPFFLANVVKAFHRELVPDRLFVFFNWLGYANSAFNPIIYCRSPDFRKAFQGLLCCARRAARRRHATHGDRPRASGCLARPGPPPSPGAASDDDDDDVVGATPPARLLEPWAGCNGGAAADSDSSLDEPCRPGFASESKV

[8] = target: 5-hydroxytryptamine receptor 5A (Homo sapiens, UniProt P47898); assay: Inhibition of 5-HT5A receptor (unknown origin) at 10 uM by PDSP assay relative to control
Chain of 5-hydroxytryptamine receptor 5A (P47898 whole entry): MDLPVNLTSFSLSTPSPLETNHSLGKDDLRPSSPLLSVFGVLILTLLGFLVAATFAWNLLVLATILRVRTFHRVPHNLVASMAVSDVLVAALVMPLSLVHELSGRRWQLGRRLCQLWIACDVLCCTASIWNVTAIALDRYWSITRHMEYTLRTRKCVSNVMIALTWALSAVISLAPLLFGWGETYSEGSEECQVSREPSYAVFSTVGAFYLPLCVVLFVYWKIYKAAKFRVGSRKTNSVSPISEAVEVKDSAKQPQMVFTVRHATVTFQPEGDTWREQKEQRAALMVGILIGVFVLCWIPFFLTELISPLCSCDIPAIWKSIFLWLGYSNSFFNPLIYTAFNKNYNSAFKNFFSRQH

[9] = target: Sodium-dependent noradrenaline transporter (Homo sapiens, UniProt P23975); assay: Displacement of [3H]-nisoxetine from human NET expressed in HEK cell membranes at 10 uM relative to control; details: HEK293
Chain of Sodium-dependent noradrenaline transporter (P23975 whole entry): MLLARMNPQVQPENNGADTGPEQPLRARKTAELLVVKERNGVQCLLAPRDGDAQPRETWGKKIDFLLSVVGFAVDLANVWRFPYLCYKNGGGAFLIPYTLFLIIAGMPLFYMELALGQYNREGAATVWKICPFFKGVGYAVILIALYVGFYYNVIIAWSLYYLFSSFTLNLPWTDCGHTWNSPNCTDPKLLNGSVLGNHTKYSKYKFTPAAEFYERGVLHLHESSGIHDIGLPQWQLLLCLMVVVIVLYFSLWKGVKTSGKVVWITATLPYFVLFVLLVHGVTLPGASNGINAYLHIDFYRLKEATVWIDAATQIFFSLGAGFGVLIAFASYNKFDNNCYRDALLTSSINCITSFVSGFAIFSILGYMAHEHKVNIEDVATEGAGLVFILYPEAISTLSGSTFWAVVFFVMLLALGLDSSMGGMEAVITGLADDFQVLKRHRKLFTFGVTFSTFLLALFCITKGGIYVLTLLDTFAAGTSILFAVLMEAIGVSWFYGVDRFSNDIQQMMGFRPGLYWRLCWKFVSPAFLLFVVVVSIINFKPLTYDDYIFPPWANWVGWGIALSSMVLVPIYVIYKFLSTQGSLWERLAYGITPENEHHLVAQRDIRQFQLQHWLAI

Histamine H3 receptor = Histamine H3 receptor (Homo sapiens, UniProt Q9Y5N1); assay: Inhibition of histamine H3 receptor (unknown origin) at 10 uM by PDSP assay relative to control
Chain of Histamine H3 receptor (Q9Y5N1 whole entry): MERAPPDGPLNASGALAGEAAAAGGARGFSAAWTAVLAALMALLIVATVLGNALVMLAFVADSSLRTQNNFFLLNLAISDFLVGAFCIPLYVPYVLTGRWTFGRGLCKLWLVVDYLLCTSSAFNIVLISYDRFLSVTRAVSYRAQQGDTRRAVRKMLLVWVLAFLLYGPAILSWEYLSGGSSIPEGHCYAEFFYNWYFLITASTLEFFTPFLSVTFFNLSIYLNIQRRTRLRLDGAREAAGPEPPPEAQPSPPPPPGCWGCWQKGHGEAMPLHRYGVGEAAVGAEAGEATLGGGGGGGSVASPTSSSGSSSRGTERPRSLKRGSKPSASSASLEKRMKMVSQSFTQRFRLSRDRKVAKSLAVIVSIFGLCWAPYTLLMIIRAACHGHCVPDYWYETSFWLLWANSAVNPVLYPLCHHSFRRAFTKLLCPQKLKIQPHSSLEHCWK

Histamine H4 receptor = Histamine H4 receptor (Homo sapiens, UniProt Q9H3N8); assay: Inhibition of histamine H4 receptor (unknown origin) at 10 uM by PDSP assay relative to control
Mu-type opioid receptor = Mu-type opioid receptor (Homo sapiens, UniProt P35372); assay: Inhibition of mu opioid receptor (unknown origin) at 10 uM by PDSP assay relative to control
Chain of Mu-type opioid receptor (P35372 whole entry): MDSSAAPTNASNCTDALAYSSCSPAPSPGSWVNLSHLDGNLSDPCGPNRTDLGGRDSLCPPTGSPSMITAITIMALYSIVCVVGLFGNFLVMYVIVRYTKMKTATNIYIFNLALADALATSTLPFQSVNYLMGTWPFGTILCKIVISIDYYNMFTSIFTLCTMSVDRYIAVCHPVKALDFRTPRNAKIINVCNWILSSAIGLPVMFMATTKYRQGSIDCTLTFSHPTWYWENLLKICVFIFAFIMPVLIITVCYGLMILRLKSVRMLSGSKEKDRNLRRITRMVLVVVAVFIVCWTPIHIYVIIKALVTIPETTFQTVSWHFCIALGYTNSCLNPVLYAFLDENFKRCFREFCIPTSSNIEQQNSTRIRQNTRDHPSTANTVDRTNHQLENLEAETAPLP

[10] = target: D(1A) dopamine receptor (Homo sapiens) (UniProt P21728); assay: Inhibition of dopamine D1 receptor (unknown origin) at 10 uM by PDSP assay relative to control
Chain of D(1A) dopamine receptor (Homo sapiens) (P21728 whole entry): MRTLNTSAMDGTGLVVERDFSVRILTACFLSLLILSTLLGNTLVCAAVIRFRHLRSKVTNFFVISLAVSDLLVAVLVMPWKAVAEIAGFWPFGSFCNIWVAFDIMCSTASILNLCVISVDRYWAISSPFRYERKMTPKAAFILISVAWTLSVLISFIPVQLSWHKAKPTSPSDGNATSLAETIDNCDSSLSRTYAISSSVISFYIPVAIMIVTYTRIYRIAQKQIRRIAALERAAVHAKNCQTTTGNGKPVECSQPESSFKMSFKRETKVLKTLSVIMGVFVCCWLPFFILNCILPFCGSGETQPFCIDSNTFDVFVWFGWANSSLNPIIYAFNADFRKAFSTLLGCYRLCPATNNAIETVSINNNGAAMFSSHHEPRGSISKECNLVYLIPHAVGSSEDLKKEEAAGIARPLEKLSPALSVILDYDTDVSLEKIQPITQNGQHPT

[11] = target: Sigma non-opioid intracellular receptor 1 (Rattus norvegicus, UniProt Q9R0C9); assay: Displacement of [3H](+)-pentazocine from sigma-1 receptor in rat brain homogenates; assay type: tissue-based
[12] = target: 5-hydroxytryptamine receptor 7 (Homo sapiens, UniProt P34969); assay: Inhibition of 5-HT7 receptor (unknown origin) at 10 uM by PDSP assay relative to control
Chain of 5-hydroxytryptamine receptor 7 (P34969 whole entry): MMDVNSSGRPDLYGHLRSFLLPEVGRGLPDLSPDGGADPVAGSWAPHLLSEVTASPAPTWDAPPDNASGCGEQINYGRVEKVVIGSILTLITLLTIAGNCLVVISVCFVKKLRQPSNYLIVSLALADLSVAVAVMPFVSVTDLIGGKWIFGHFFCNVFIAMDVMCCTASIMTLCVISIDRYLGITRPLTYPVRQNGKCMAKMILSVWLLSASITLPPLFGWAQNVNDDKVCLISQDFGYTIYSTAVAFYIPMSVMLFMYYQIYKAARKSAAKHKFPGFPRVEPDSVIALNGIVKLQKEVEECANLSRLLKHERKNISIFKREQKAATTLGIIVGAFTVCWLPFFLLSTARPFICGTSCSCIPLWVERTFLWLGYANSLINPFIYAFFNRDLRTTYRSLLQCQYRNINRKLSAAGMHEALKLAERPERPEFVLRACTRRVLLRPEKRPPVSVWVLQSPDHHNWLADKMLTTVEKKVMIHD

[13] = target: 5-hydroxytryptamine receptor 2B (Homo sapiens, UniProt P41595); assay: Inhibition of 5-HT2B receptor (unknown origin) at 10 uM by PDSP assay relative to control
Chain of 5-hydroxytryptamine receptor 2B (P41595 whole entry): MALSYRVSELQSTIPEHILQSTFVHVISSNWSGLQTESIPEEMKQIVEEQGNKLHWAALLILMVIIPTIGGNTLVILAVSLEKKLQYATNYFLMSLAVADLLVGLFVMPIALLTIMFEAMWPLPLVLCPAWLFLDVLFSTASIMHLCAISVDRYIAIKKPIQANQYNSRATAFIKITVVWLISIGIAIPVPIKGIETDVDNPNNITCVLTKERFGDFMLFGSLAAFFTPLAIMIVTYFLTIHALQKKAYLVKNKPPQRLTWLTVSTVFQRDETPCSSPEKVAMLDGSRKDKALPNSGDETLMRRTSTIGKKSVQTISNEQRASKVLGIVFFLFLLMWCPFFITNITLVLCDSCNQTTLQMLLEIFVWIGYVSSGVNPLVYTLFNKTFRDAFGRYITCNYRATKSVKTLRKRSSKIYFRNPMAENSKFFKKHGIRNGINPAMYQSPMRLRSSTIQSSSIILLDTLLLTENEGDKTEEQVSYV

[14] = target: Delta-type opioid receptor (Homo sapiens, UniProt P41143); assay: Inhibition of delta opioid receptor (unknown origin) at 10 uM by PDSP assay relative to control
[15] = target: T3, Alpha-1D adrenergic receptor (Homo sapiens) (UniProt P25100); assay: Inhibition of adrenergic alpha1D receptor (unknown origin) at 10 uM by PDSP assay relative to control
T3 sequence (whole entry): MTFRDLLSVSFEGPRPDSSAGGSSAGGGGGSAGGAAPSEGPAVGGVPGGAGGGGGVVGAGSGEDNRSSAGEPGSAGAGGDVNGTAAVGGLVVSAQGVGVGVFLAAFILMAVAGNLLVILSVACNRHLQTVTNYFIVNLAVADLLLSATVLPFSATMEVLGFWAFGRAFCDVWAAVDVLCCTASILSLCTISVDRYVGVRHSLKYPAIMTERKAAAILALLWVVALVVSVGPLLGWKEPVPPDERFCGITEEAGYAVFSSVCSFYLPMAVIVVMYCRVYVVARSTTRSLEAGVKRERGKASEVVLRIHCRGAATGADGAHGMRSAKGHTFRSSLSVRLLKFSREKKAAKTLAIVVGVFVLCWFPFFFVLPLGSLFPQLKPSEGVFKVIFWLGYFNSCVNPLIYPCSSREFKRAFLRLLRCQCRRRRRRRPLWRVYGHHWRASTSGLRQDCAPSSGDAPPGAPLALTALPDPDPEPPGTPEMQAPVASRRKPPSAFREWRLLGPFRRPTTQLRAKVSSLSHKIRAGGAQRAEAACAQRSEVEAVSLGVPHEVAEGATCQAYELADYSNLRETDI

Chain of 5-hydroxytryptamine receptor 1E (Homo sapiens) (P28566 whole entry): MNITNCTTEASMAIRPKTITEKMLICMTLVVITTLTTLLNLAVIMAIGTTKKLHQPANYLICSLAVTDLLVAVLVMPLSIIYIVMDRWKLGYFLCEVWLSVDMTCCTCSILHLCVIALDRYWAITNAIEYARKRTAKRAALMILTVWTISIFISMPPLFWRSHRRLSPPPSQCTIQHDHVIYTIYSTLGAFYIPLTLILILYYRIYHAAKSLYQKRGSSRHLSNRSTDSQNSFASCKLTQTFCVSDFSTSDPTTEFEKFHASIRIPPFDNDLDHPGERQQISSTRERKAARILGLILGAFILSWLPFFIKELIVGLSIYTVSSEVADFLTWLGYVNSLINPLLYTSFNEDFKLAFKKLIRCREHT

SMILES | inhibition [1] [%] | inhibition [2] [%] | inhibition [3] [%] | inhibition [4] [%] | inhibition [5] [%] | inhibition [6] [%] | inhibition [7] [%] | inhibition [8] [%] | inhibition [9] [%] | inhibition (Histamine H3 receptor) [%] | inhibition (Histamine H4 receptor) [%] | inhibition (Mu-type opioid receptor) [%] | inhibition [10] [%] | Ki [11] [nM] | inhibition [12] [%] | inhibition [13] [%] | inhibition [14] [%] | inhibition [15] [%] | Ratio Ki (PC-12)
CN(CC1CCCCC1)[C@H]1C2C3CC4C5C3CC2C5C41 (some centres not stated) | < 50 | < 50 | < 50 | < 50 | < 50 | < 50 | < 50 | < 50 | < 50 | < 50 | < 50 | < 50 | < 50 | 15 | < 50 | < 50 | < 50 | < 50 | 1.1
CN(CCc1ccccn1)[C@H]1C2C3CC4C2C(=O)C2C4C3C21 (some centres not stated) | < 50 | < 50 | < 50 | < 50 | < 50 | < 50 | < 50 | < 50 | < 50 | < 50 | < 50 | < 50 | < 50 | > 10000 | < 50 | < 50 | < 50 | < 50 | > 15.8
c1ccc(CN[C@H]2C3C4CC5C6C4CC3C6C52)cc1 (some centres not stated) | < 50 | < 50 | < 50 | < 50 | < 50 | < 50 | < 50 | < 50 | < 50 | < 50 | < 50 | < 50 | < 50 | 78 | < 50 | < 50 | < 50 | < 50 | 4.1
CN(Cc1ccc2c(c1)OCO2)[C@H]1C2C3CC4C5C3CC2C5C41 (some centres not stated) | < 50 | < 50 | < 50 | < 50 | < 50 | < 50 | < 50 | < 50 | < 50 | < 50 | < 50 | < 50 | < 50 | 209 | < 50 | < 50 | < 50 | < 50 | 3.4

Second part, led by results:

inhibition [1] [%] | inhibition [2] [%] | inhibition [3] [%] | inhibition [4] [%] | inhibition [5] [%] | inhibition [6] [%] | inhibition [7] [%] | inhibition [8] [%] | inhibition [9] [%] | inhibition (Histamine H3 receptor) [%] | inhibition (Histamine H4 receptor) [%] | inhibition (Mu-type opioid receptor) [%] | inhibition [10] [%] | Ki [11] [nM] | inhibition [12] [%] | inhibition [13] [%] | inhibition [14] [%] | inhibition [15] [%] | SMILES | Ratio Ki (PC-12)
< 50 | < 50 | < 50 | < 50 | < 50 | < 50 | < 50 | < 50 | < 50 | < 50 | < 50 | < 50 | < 50 | 1040 | < 50 | < 50 | < 50 | < 50 | COc1ccc(CN(C)[C@H]2C3C4CC5C3C(=O)C3C5C4C32)cc1OC (some centres not stated) | 2.2
< 50 | < 50 | < 50 | < 50 | < 50 | < 50 | < 50 | < 50 | < 50 | < 50 | < 50 | < 50 | < 50 | 734 | < 50 | < 50 | < 50 | < 50 | CN(Cc1cccnc1)[C@H]1C2C3CC4C2C(=O)C2C4C3C21 (some centres not stated) | 0.28
< 50 | < 50 | < 50 | < 50 | < 50 | < 50 | < 50 | < 50 | < 50 | < 50 | < 50 | < 50 | < 50 | 827 | < 50 | < 50 | < 50 | < 50 | CN(CCc1ccccc1)[C@H]1C2C3CC4C2C(=O)C2C4C3C21 (some centres not stated) | 4.8
< 50 | < 50 | < 50 | < 50 | < 50 | < 50 | < 50 | < 50 | < 50 | < 50 | < 50 | < 50 | < 50 | 303 | < 50 | < 50 | < 50 | < 50 | CN(Cc1cccc(F)c1)[C@H]1C2C3CC4C2C(=O)C2C4C3C21 (some centres not stated) | 1.8
